pIC50: −log10 of the molar value.

The subject of this test is KRAS G12V dependent lung adenocarcinoma cell line, NCI-H441. Description: Cellular pERK (Thr202/Tyr204) FRET/HTRF assay. The test is classed as cell-based. The settings on record: Homo sapiens, NCI-H441, cellular pERK (Thr202/Tyr204) HTRF, NCI-H441 cells. In short, it runs like this: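 IC50 reflects inhibition of ERK1/2 Thr202/Tyr204 phosphorylation, quantified by HTRF after a 1 hr treatment of KRAS G12V-driven NCI-H441 cells. DMSO served as negative control.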
In general terms: In TR-FRET formats the signal depends on donor and acceptor labels being close together.
As a reminder, the pIC50 is the IC50 on a negative log10 scale, so that one unit is a factor of ten. A low value points to a high IC50. `[2H]C([2H])(Oc1nc(N2CCC=C[C@H]3[C@H](F)[C@H]32)c2cnc(-c3cccc4ccc(F)c(C#C)c34)c(F)c2n1)[C@@]12CCCN1C[C@H](F)C2` [Example 147, 7-(8-Ethynyl-7-fluoronaphthalen-1-yl)-8-fluoro-4-((1S,7R,8S)-8-fluoro-2-azabicyclo[5.1.0]oct-5-en-2-yl)-2-(((2R,7aS)-2-fluorotetrahydro-1H-pyrrolizin-7a(5H)-yl)methoxy-d2)pyrido[4,3-d]pyrimidine] had a negative-log IC50 (pIC50) above 7.30.

With `[2H]C([2H])([2H])Oc1c(F)c(F)c(F)c2cc(N)cc(-c3ncc4c(N5CCC=C[C@H]6[C@H](F)[C@H]65)nc(OC([2H])([2H])[C@@]56CCCN5C[C@H](F)C6)nc4c3F)c12` [Example 148, 6,7,8-Trifluoro-4-(8-fluoro-4-((1S,7R,8S)-8-fluoro-2-azabicyclo[5.1.0]oct-5-en-2-yl)-2-(((2R,7aS)-2-fluorotetrahydro-1H-pyrrolizin-7a(5H)-yl)methoxy-d2)pyrido[4,3-d]pyrimidin-7-yl)-5-(methoxy-d3)naphthalen-2-amine], the pIC50 is 6.30 to 7.30. Then `[2H]C([2H])([2H])Oc1c(F)cc(F)c2cc(N)cc(-c3ncc4c(N5CCC=C[C@H]6[C@H](F)[C@H]65)nc(OC([2H])([2H])[C@@]56CCCN5C[C@H](F)C6)nc4c3F)c12` [Example 149, 6,8-difluoro-4-(8-fluoro-4-((1S,7R,8S)-8-fluoro-2-azabicyclo[5.1.0]oct-5-en-2-yl)-2-(((2R,7aS)-2-fluorotetrahydro-1H-pyrrolizin-7a(5H)-yl)methoxy-d2)pyrido[4,3-d]pyrimidin-7-yl)-5-(methoxy-d3)naphthalen-2-amine], with above 7.30. Compound `[2H]C([2H])(Oc1nc(N2CCC=C[C@H]3[C@H](F)[C@H]32)c2cnc(-c3cc(N)cc4ccc(F)c(C#C)c34)c(F)c2n1)[C@@]12CCCN1C[C@H](F)C2` [Example 150, 5-Ethynyl-6-fluoro-4-(8-fluoro-4-((1S,7R,8S)-8-fluoro-2-azabicyclo[5.1.0]oct-5-en-2-yl)-2-(((2R,7aS)-2-fluorotetrahydro-1H-pyrrolizin-7a(5H)-yl)methoxy-d2)pyrido[4,3-d]pyrimidin-7-yl)naphthalen-2-amine] gave a pIC50 above 7.30. Then `[2H]C([2H])(F)Oc1c(F)cc(F)c2cccc(-c3ncc4c(N5CCOC[C@H]6[C@H](F)[C@H]65)nc(OC([2H])([2H])[C@@]56CCCN5C[C@H](F)C6)nc4c3F)c12` [Example 151, (1S,7S,8S)-2-(7-(5,7-difluoro-8-(fluoromethoxy-d2)naphthalen-1-yl)-8-fluoro-2-(((2R,7aS)-2-fluorotetrahydro-1H-pyrrolizin-7a(5H)-yl)methoxy-d2)pyrido[4,3-d]pyrimidin-4-yl)-8-fluoro-5-oxa-2-azabicyclo[5.1.0]octane], with above 7.30; and `[2H]C([2H])(Oc1nc(N2CCOC[C@H]3[C@H](F)[C@H]32)c2cnc(-c3nc(N)cc4ccc(F)c(Cl)c34)c(F)c2n1)[C@@]12CCCN1C[C@H](F)C2` [Example 152, 8-chloro-7-fluoro-1-(8-fluoro-4-((1S,7S,8S)-8-fluoro-5-oxa-2-azabicyclo[5.1.0]octan-2-yl)-2-(((2R,7aS)-2-fluorotetrahydro-1H-pyrrolizin-7a(5H)-yl)methoxy-d2)pyrido[4,3-d]pyrimidin-7-yl)isoquinolin-3-amine], with 6.30 to 7.30. For the compound `[2H]C([2H])(Oc1nc(N2CCCC[C@H]3[C@H](F)[C@H]32)c2cnc(-c3nc(N)cc4ccc(F)c(Cl)c34)c(F)c2n1)[C@@]12CCCN1C[C@H](F)C2` [Example 153, 8-chloro-7-fluoro-1-(8-fluoro-4-((1S,7R,8S)-8-fluoro-2-azabicyclo[5.1.0]octan-2-yl)-2-(((2R,7aS)-2-fluorotetrahydro-1H-pyrrolizin-7a(5H)-yl)methoxy-d2)pyrido[4,3-d]pyrimidin-7-yl)isoquinolin-3-amine], the pIC50 was 6.30 to 7.30. Then `[2H]C([2H])(Oc1nc(N2CCOC[C@H]3[C@H](F)[C@H]32)c2cnc(-c3nc(N)cc4ccc(F)c(C#C)c34)c(F)c2n1)[C@@]12CCCN1C[C@H](F)C2` [Example 154], with above 7.30.
